Measurements reported in patent US9408391B2, “Fungicide composition comprising a tetrazolyloxime derivative and a thiazolylpiperidine derivative” (BAYER INTELLECTUAL PROPERTY GMBH, priority 2010, dated 2016).
Where two headings read alike, the source gives them in different places.

Columns and labels:
Phytophthora infestans = type: in vivo; settings: tomato plants, preventive spray, evaluated 3 days after inoculation
Venturia inaequalis = experiment: Venturia test (apples)/preventive; settings: apple plants, preventive spray, 100 ppm a.i., evaluated 10 days after inoculation
Protocol: Venturia Test (Apples)/Preventive
Solvent: 24,5 parts by weight of acetone • 24,5 parts by weight of dimethylacetamide
Emulsifier: part by weight of alkylaryl polyglycol ether
After the spray coating has dried on the plants are inoculated with an aqueous conidia suspension of the causal agent of apple scab (Venturia inaequalis) and then remain for 1 day in an incubation cabinet at approximately 20° C. and a relative atmospheric humidity of 100%.
The plants are then placed in a greenhouse at approximately 21° C. and a relative atmospheric humidity of approximately 90%.
The test is evaluated 10 days after the inoculation.

SMILES: Cn1nnnc1/C(=N\OCc1cccc(NC(=O)OC(C)(C)C)n1)c1ccccc1 [(A2)]
- Efficacy in % found (Phytophthora infestans; 1 ppm a.i.): 46%
- Efficacy in % found (Venturia inaequalis): 22%

SMILES: Cc1cc(C(F)(F)F)nn1CC(=O)N1CCC(c2nc(C3=NOC(c4c(F)cccc4F)C3)cs2)CC1 (stereo not shown) [(B2), 1-(4-{4-[5-(2,6-difluorophenyl)-4,5-dihydro-1,2-oxazol-3-yl]-1,3-thiazol-2-yl}piperidin-1-yl)-2-[5-methyl-3-(trifluoromethyl)-1H-pyrazol-1-yl]ethanone]
- Efficacy in % found (Phytophthora infestans; 0.01 ppm a.i.): 30%
- Efficacy in % found (Venturia inaequalis): 0%
